Reference: ChEMBL document CHEMBL5030544, “Synthesis, anti-microbial, toxicity and molecular docking studies of N-nitroso-N-phenylhydroxylamine (cupferron) and its derivatives” (Bioorg Med Chem Lett, 2021)
Values after ≈ are worked out from the molar mass of the structure shown. Active and inactive are the calls of the source. The calls are words filed in the database; no cut-off is given here.

Legend:
Staphylococcus aureus [1] = experiment: Antibacterial activity against Staphylococcus aureus […] assessed as zone of inhibition at 15 mg/ml; assay type: functional; details: for zone of inhibition at 15000 µg/mL: read-out: IZ
Staphylococcus aureus [2] = experiment: Antibacterial activity against Staphylococcus aureus […] assessed as zone of inhibition at 5 mg/ml; assay type: functional; details: for zone of inhibition at 5000 µg/mL: read-out: IZ
Klebsiella pneumoniae [3] = experiment: Antibacterial activity against Klebsiella pneumoniae ATCC 13883 assessed as bacterial growth inhibition; assay type: functional
Streptococcus pyogenes [4] = experiment: Antibacterial activity against Streptococcus pyogenes ATCC 19615 assessed as bacterial growth inhibition; assay type: functional
Staphylococcus aureus [5] = experiment: Antibacterial activity against Staphylococcus aureus […] assessed as zone of inhibition at 10 mg/ml; assay type: functional; details: for zone of inhibition at 10000 µg/mL: read-out: IZ
Corynebacterium [6] = experiment: Antibacterial activity against Corynebacterium ATCC 49368 assessed as zone of inhibition at 10 mg/ml; assay type: functional; details: for zone of inhibition at 10000 µg/mL: read-out: IZ
Escherichia coli [7] = experiment: Antibacterial activity against Escherichia coli ATCC 25922 assessed as bacterial growth inhibition; assay type: functional
Bacillus subtilis [8] = experiment: Antibacterial activity against Bacillus subtilis ATCC 23857 assessed as zone of inhibition at 15 mg/ml; assay type: functional; details: for zone of inhibition at 15000 µg/mL: read-out: IZ
Streptococcus pyogenes [9] = experiment: Antibacterial activity against Streptococcus pyogenes ATCC 19615 assessed as zone of inhibition at 15 mg/ml; assay type: functional; details: for zone of inhibition at 15000 µg/mL: read-out: IZ
Streptococcus pyogenes [10] = experiment: Antibacterial activity against Streptococcus pyogenes ATCC 19615 assessed as zone of inhibition at 10 mg/ml; assay type: functional; details: for zone of inhibition at 10000 µg/mL: read-out: IZ
Pseudomonas aeruginosa [11] = experiment: Antibacterial activity against Pseudomonas aeruginosa ATCC 27853 assessed as zone of inhibition at 10 mg/ml; assay type: functional; details: read-out: IZ
Corynebacterium [12] = experiment: Antibacterial activity against Corynebacterium ATCC 49368 assessed as zone of inhibition at 15 mg/ml; assay type: functional; details: for zone of inhibition at 15000 µg/mL: read-out: IZ
Streptococcus pyogenes [13] = experiment: Antibacterial activity against Streptococcus pyogenes ATCC 19615 assessed as zone of inhibition at 5 mg/ml; assay type: functional; details: for zone of inhibition at 5000 µg/mL: read-out: IZ
Bacillus subtilis [14] = experiment: Antibacterial activity against Bacillus subtilis ATCC 23857 assessed as zone of inhibition at 10 mg/ml; assay type: functional; details: for zone of inhibition at 10000 µg/mL: read-out: IZ
Klebsiella pneumoniae [15] = experiment: Antibacterial activity against Klebsiella pneumoniae ATCC 13883 assessed as zone of inhibition at 15 mg/kg; assay type: functional; details: read-out: IZ
Pseudomonas aeruginosa [16] = experiment: Antibacterial activity against Pseudomonas aeruginosa ATCC 27853 assessed as zone of inhibition at 15 mg/ml; assay type: functional; details: read-out: IZ
Staphylococcus aureus [17] = experiment: Antibacterial activity against Staphylococcus aureus […] assessed as bacterial growth inhibition; assay type: functional
Bacillus subtilis [18] = experiment: Antibacterial activity against Bacillus subtilis ATCC 23857 assessed as bacterial growth inhibition; assay type: functional
Salmonella typhi [19] = experiment: Antibacterial activity against Salmonella typhi ATCC 6539 assessed as bacterial growth inhibition; assay type: functional
Corynebacterium [20] = experiment: Antibacterial activity against Corynebacterium ATCC 49368 assessed as zone of inhibition at 5 mg/ml; assay type: functional; details: read-out: IZ
Corynebacterium [21] = experiment: Antibacterial activity against Corynebacterium ATCC 49368 assessed as bacterial growth inhibition; assay type: functional
Klebsiella pneumoniae [22] = experiment: Antibacterial activity against Klebsiella pneumoniae ATCC 13883 assessed as zone of inhibition at 10 mg/kg; assay type: functional; details: read-out: IZ
Bacillus subtilis [23] = experiment: Antibacterial activity against Bacillus subtilis ATCC 23857 assessed as zone of inhibition at 5 mg/ml; assay type: functional; details: for zone of inhibition at 5000 µg/mL: read-out: IZ
Salmonella typhi [24] = experiment: Antibacterial activity against Salmonella typhi ATCC 6539 assessed as zone of inhibition at 15 mg/kg; assay type: functional, Salmonella enterica subsp. enterica serovar Typhi; details: for zone of inhibition at 15 mg/kg: Salmonella enterica, read-out: IZ
Klebsiella pneumoniae [25] = experiment: Antibacterial activity against Klebsiella pneumoniae ATCC 13883 assessed as zone of inhibition at 5 mg/kg; assay type: functional; details: read-out: IZ
Escherichia coli [26] = experiment: Antibacterial activity against Escherichia coli ATCC 25922 assessed as zone of inhibition at 15 mg/ml; assay type: functional; details: read-out: IZ
Escherichia coli [27] = experiment: Antibacterial activity against Escherichia coli ATCC 25922 assessed as zone of inhibition at 5 mg/ml; assay type: functional; details: read-out: IZ
Pseudomonas aeruginosa [28] = experiment: Antibacterial activity against Pseudomonas aeruginosa ATCC 27853 assessed as bacterial growth inhibition; assay type: functional
Salmonella typhi [29] = experiment: Antibacterial activity against Salmonella typhi ATCC 6539 assessed as zone of inhibition at 10 mg/kg; assay type: functional, Salmonella enterica subsp. enterica serovar Typhi; details: for zone of inhibition at 10 mg/kg: Salmonella enterica, read-out: IZ
LLC-PK1 = experiment: Cytotoxicity against pig LLC-PK1 cells at up to 100 uM by MTT assay; assay type: cell-based, Sus scrofa
Salmonella typhi [30] = experiment: Antibacterial activity against Salmonella typhi ATCC 6539 assessed as zone of inhibition at 5 mg/kg; assay type: functional, Salmonella enterica subsp. enterica serovar Typhi; details: Salmonella enterica, read-out: IZ
HepG2 = experiment: Cytotoxicity against human HepG2 cells at up to 100 uM by MTT assay; assay type: cell-based
Pseudomonas aeruginosa [31] = experiment: Antibacterial activity against Pseudomonas aeruginosa ATCC 27853 assessed as zone of inhibition at 5 mg/ml; assay type: functional; details: read-out: IZ
Escherichia coli [32] = experiment: Antibacterial activity against Escherichia coli ATCC 25922 assessed as zone of inhibition at 10 mg/ml; assay type: functional; details: read-out: IZ
[33] = Salmonella enterica subsp. enterica serovar Typhi

Molecule | zone of inhibition at 15000 µg/mL (Staphylococcus aureus [1]) [mm] | zone of inhibition at 5000 µg/mL (Staphylococcus aureus [2]) [mm] | MIC (Klebsiella pneumoniae [3]) | MIC (Streptococcus pyogenes [4]) [µg/mL] | zone of inhibition at 10000 µg/mL (Staphylococcus aureus [5]) [mm] | zone of inhibition at 10000 µg/mL (Corynebacterium [6]) [mm] | MIC (Escherichia coli [7]) | zone of inhibition at 15000 µg/mL (Bacillus subtilis [8]) [mm] | zone of inhibition at 15000 µg/mL (Streptococcus pyogenes [9]) [mm] | zone of inhibition at 10000 µg/mL (Streptococcus pyogenes [10]) [mm] | zone of inhibition at 10000 µg/mL (Pseudomonas aeruginosa [11]) [mm] | zone of inhibition at 15000 µg/mL (Corynebacterium [12]) [mm] | zone of inhibition at 5000 µg/mL (Streptococcus pyogenes [13]) [mm] | zone of inhibition at 10000 µg/mL (Bacillus subtilis [14]) [mm] | zone of inhibition at 15 mg/kg (Klebsiella pneumoniae [15]) [mm] | zone of inhibition at 15000 µg/mL (Pseudomonas aeruginosa [16]) [mm] | MIC (Staphylococcus aureus [17]) [µg/mL] | MIC (Bacillus subtilis [18]) [µg/mL] | MIC (Corynebacterium [21]) [µg/mL] | zone of inhibition at 5000 µg/mL (Bacillus subtilis [23]) [mm] | also measured
CN[C@@H]1[C@H](O[C@H]2[C@H](O[C@H]3[C@H](O)[C@@H](O)[C@H](N=C(N)N)[C@@H](O)[C@@H]3N=C(N)N)O[C@@H](C)[C@]2(O)C=O)O[C@@H](CO)[C@H](O)[C@H]1O [STREPTOMYCIN] | 8 | 2 | 16 µg/mL (≈ 27.5 µM) | 8 (≈ 13.8 µM) | 4 | 8 | 16 µg/mL (≈ 27.5 µM) | 20 | 10 | 3 | 11 | 20 | 2 | 10 | 14 | 15 |  |  |  |  | 
N.O=NN(O)c1ccc(CCl)cc1 | 20 | 8 | inactive | 8 | 12 | 14 | inactive | 18 | 18 | 12 | 10 | 17 | 10 | 14 | 10 | 15 | 16 | 16 | 16 | 10 | MIC (Salmonella typhi [19]; [33]): inactive; zone of inhibition at 5000 µg/mL (Corynebacterium [20]): 13 mm; zone of inhibition at 10 mg/kg (Klebsiella pneumoniae [22]): 7 mm
N.O=NN(O)c1ccc(Cl)cc1 | 25 | 9 | 20 µg/mL | 4 | 9 | 16.1 | 20 µg/mL | 35 | 27 | 15 | 10 | 23 | 12 | 19 | 15 | 13 | 4 | 2 | 8 | 14 | zone of inhibition at 15 mg/kg (Salmonella typhi [24]): 19 mm; zone of inhibition at 5 mg/kg (Klebsiella pneumoniae [25]): 8 mm; zone of inhibition at 15000 µg/mL (Escherichia coli [26]): 20 mm; MIC (Salmonella typhi [19]; Salmonella enterica): 20 µg/mL; zone of inhibition at 5000 µg/mL (Escherichia coli [27]): 10 mm; MIC (Pseudomonas aeruginosa [28]): 20 µg/mL; zone of inhibition at 5000 µg/mL (Corynebacterium [20]): 13 mm; zone of inhibition at 10 mg/kg (Salmonella typhi [29]): 13 mm; Activity (LLC-PK1): Non-Toxic; zone of inhibition at 5 mg/kg (Salmonella typhi [30]): 9 mm; zone of inhibition at 10 mg/kg (Klebsiella pneumoniae [22]): 11 mm; Activity (HepG2): Non-Toxic; zone of inhibition at 5000 µg/mL (Pseudomonas aeruginosa [31]): 5 mm; zone of inhibition at 10000 µg/mL (Escherichia coli [32]): 14 mm
O=C(O)c1cn(C2CC2)c2cc(N3CCNCC3)c(F)cc2c1=O [CIPROFLOXACIN] | 22 | 7 |  |  | 10 | 16 |  | 27 | 26 | 13 | 18 | 19 | 10 | 15 | 25 | 25 |  | 2 (≈ 6.04 µM) | 4 (≈ 12.1 µM) | 12 | zone of inhibition at 15 mg/kg (Salmonella typhi [24]): 32 mm; zone of inhibition at 15000 µg/mL (Escherichia coli [26]): 10 mm; zone of inhibition at 5000 µg/mL (Corynebacterium [20]): 10 mm; zone of inhibition at 10 mg/kg (Salmonella typhi [29]): 15 mm; zone of inhibition at 10 mg/kg (Klebsiella pneumoniae [22]): 12 mm; zone of inhibition at 5000 µg/mL (Pseudomonas aeruginosa [31]): 15 mm; zone of inhibition at 10000 µg/mL (Escherichia coli [32]): 11 mm
GENTAMICIN |  |  |  |  |  |  |  |  |  |  |  |  |  |  |  |  | 8 |  |  |  | inhibition zone (IZ) (Salmonella typhi [24]; [33]): 26 mm; inhibition zone (IZ) (Staphylococcus aureus [1]): 22 mm; inhibition zone (IZ) (Staphylococcus aureus [2]): 10 mm; inhibition zone (IZ) (Staphylococcus aureus [5]): 11 mm; MIC (Salmonella typhi [19]; [33]): 16 µg/mL; inhibition zone (IZ) (Corynebacterium [6]): 10 mm; inhibition zone (IZ) (Bacillus subtilis [8]): 24 mm; inhibition zone (IZ) (Streptococcus pyogenes [9]): 25 mm; inhibition zone (IZ) (Salmonella typhi [29]; [33]): 12 mm; inhibition zone (IZ) (Streptococcus pyogenes [10]): 13 mm; inhibition zone (IZ) (Corynebacterium [12]): 23 mm; inhibition zone (IZ) (Streptococcus pyogenes [13]): 3 mm; inhibition zone (IZ) (Bacillus subtilis [14]): 10 mm; inhibition zone (IZ) (Bacillus subtilis [23]): 5 mm
N.O=NN(O)c1ccccc1 | 12 |  | inactive | 20 | 9 |  | inactive | 17 | 20 | 10 |  | 10 | 8 | 15 |  |  | 20 | 16 | 20 | 10 | MIC (Staphylococcus aureus [2]): inactive; MIC (Salmonella typhi [19]; Salmonella enterica): 20 µg/mL
